The values that follow come from article PMC11343806 (Journal of Biological Inorganic Chemistry, 2024).

Molecules are shown by their SMILES. Where two headings read alike, the source gives them in different places. Where only a bound is given, the exact number is not on record here.

The subject of series [1] is A-549 lung cancer cells. Briefly: Antiproliferative assay (crystal violet). The series is classed as cell-based, human. Conditions: 72 h exposure, ± standard deviation, n = 2–4, read-out: IC50, antiproliferative effects, A-549. As for the experimental part:
(§1) The antiproliferative effects were determined according to a previously published procedure. A volume of 100 µL of cell suspension of A549 cells, MDA-MB-231, HT-29 or Vero E6 cells was transferred into the wells of a 96-well plates and incubated at 37 °C under 5% CO2 for 72 h. […] The results were calculated as the mean values of three independent experiments, unless stated otherwise.

Series [2] has as its system HT-29 colon carcinoma cells. Briefly: Antiproliferative assay (crystal violet). The series is classed as cell-based, human. Conditions: 72 h exposure, ± standard deviation, n = 2–4, read-out: IC50, antiproliferative effects, HT-29. As for the experimental part:
as §1

Series [3] concerns MDA-MB-231 breast cancer cells. As to the kind of experiment: Antiproliferative assay (crystal violet). The class given is cell-based, human. Conditions: 96 h exposure, ± standard deviation, n = 2–4, read-out: IC50, antiproliferative effects, MDA-MB-231. As for the experimental part: as §1
For series [4], the system named is Vero E6 non-tumorigenic epithelial kidney cells. As to the kind of experiment: Antiproliferative assay (crystal violet). The series is classed as cell-based, African green monkey. Conditions: 72 h exposure, ± standard deviation, n = 2–4, read-out: IC50, antiproliferative effects, Vero E6. As for the experimental part: as §1
In series [5] the test system is aerobic Gram-positive and Gram-negative pathogenic bacteria strains. Briefly: MIC, summary over the panel of aerobic bacteria. The series is classed as cell-based. Conditions: aerobic conditions; for MIC values against all bacteria strains: all strains of the panel. As for the experimental part:
(§2) The following strains were used and maintained at 37 °C in MHB (21 g/L Müller Hinton, pH 7.4) or TSY (30 g/L trypticase soy broth, 3 g/L yeast extract, pH 7.0–7.2) medium. Acinetobacter baumannii (DSM 30007, ATCC 19606) in MHB, Escherichia coli (DSM1116, ATCC 9637) in TSY, Klebsiella pneumoniae (DSM 11678, ATCC33495) in MHB, Pseudomonas aeruginosa PA7 (DSM 24068) in MHB, Enterococcus faecium (DSM 20477, ATCC 19434) in TSY, Staphylococcus aureus MRSA (DSM 11822, ICB 25701) in TSY). Minimum inhibitory concentration (MIC) values were determined following a standardized protocol in broth dilution assays. […] Starting inocula of 2–8 × 10^5 colony-forming units per ml in MHB or TSY media at 37 °C were used, and serial dilutions were carried out in 384-well microtiter plates in duplicate. […] The MIC values for the tested compounds were determined in three independent experiments by a curve-fitting procedure using the GraphPad Prism software (Graphpad Software, Inc.).

Series [6] relates to A-549, HT-29, MDA-MB-231 and Vero E6 cells. As to the kind of experiment: Antiproliferative assay, summary over all cell lines. Conditions: for IC50: all four cell lines, for 2c except MDA-MB-231, read-out: IC50 values, antiproliferative effects, all cell lines. The class given is cell-based. As for the experimental part:
as §1

In series [7] the test system is Enterococcus faecium (DSM 20477, ATCC 19434). Briefly: MIC broth dilution, aerobic bacteria. The class given is cell-based. Conditions: 20 h at 37 °C, ± standard error; for MIC, E. faecium: n ≥ 3; for MIC: n ≥ 3, read-out: MIC, E. faecium. As for the experimental part: as §2
On the technique in general: Dilution methods test growth across graded concentrations, often in twofold steps.

Series [8] has as its system Staphylococcus aureus MRSA (DSM 11822, ICB 25701). As to the kind of experiment: MIC broth dilution, aerobic bacteria. The class given is cell-based. Conditions: 20 h at 37 °C, ± standard error, n ≥ 3. As for the experimental part:
as §2

The test system of series [9] is Escherichia coli (DSM1116, ATCC 9637). As to the kind of experiment: MIC broth dilution, aerobic bacteria. The series is classed as cell-based. Conditions: 20 h at 37 °C, ± standard error, n ≥ 3. As for the experimental part:
as §2

The test system of series [10] is Klebsiella pneumoniae (DSM 11678, ATCC33495). As to the kind of experiment: MIC broth dilution, aerobic bacteria. Conditions: 20 h at 37 °C, ± standard error, n ≥ 3, read-out: MIC, K. pneumoniae. The series is classed as cell-based. As for the experimental part:
as §2

For series [11], the system named is Acinetobacter baumannii (DSM 30007, ATCC 19606). Briefly: MIC broth dilution, aerobic bacteria. The series is classed as cell-based. Conditions: 20 h at 37 °C, ± standard error, n ≥ 3. As for the experimental part: as §2
Series [12] deals with Pseudomonas aeruginosa PA7 (DSM 24068). Briefly: MIC broth dilution, aerobic bacteria. The series is classed as cell-based. Conditions: ± standard error, n ≥ 3, read-out: MIC, P.aeruginosa. As for the experimental part:
as §2

Series [13] addresses T1, bacterial TrxR from E. coli (Escherichia coli, UniProt P0A9P4).
T1 construct: purchased Sigma-Aldrich
Briefly: Inhibition of bacterial TrxR (E. coli), DTNB/5-TNB assay. Conditions: purified enzyme, 75 min incubation at 25 °C; means and standard deviations. The series is classed as biochemical. As for the experimental part:
The TrxR (E.coli) inhibition assay was performed according to a previously published procedure. It is partly based on the procedure developed by Lu et al.[35] and detects the formation of 5-TNB (5-thionitrobenzoic acid). Solutions of E. coli TrxR (35.4 U/mL) and of its substrate thioredoxin (Trx) E. coli (156 µg/mL) (both purchased from Sigma-Aldrich and diluted with distilled water) and fresh stock solutions of the test compounds (in DMF) were prepared (1c was administered as suspension). TE buffer (Tris–HCl 50 mM, EDTA 1 mM, pH 7.5) containing graded concentrations of the respective compounds (20 µL) or buffer without compounds (20 µL, as control) were mixed with TrxR solution (10 µL), Trx solution (10 µL), and a solution of NADPH (200 µM) in TE buffer (100 µL) in a well on a 96-well plate. As blank solution, 200 µM NADPH in TE buffer (100 µL) mixed with a DMF/buffer mixture (40 µL) was used (final concentrations of DMF: 0.5% v/v). The solutions on the 96-well plate were incubated for 75 min at 25 °C with moderate shaking. A volume of 100 µL of a reaction mixture (TE buffer containing 200 µM NADPH and 5 mM DTNB) was added to each well to initiate the reaction. After thorough mixing, the formation of 5-TNB was monitored by a microplate reader at 405 nm in 35 s intervals (10 measurements). The values were corrected by subtraction of the values for the blank solution. The increase in concentration of 5-TNB followed a linear trend (r^2 ≥ 0.990) and the enzymatic activities were calculated as the gradients (increase in absorbance per second) thereof. Absence of interference with the assay components was confirmed by a negative control experiment for each test compound. The highest test compound concentration was used and the enzyme solution was replaced by TE buffer for this purpose. The IC50 values were calculated as the concentration of the compound decreasing the enzymatic activity of the positive control by 50% and are presented as the means and standard deviations of independent repeated experiments.

For series [14], the system named is C. difficile strain IB136 (NCTC 14385), metronidazole-resistant. As to the kind of experiment: Antibacterial effects against C. difficile (anaerobic growth curves, OD600). The class given is cell-based, Clostridioides difficile. As for the experimental part:
(§3) (provided by Ulrich Nübel, DSMZ Braunschweig) were maintained in prereduced BHIS medium (37 g/L BHI, oxoid, 5% yeast extract, 1% L-cysteine) in a Coy-Laboratories anaerobic chamber (85% N2, 10% CO2, 5% H2) at 37 °C. Freshly prepared cultures were incubated until the exponential growth phase (OD600 = 0.2–0.4) and were adjusted to 1 × 10^6 cfu/mL before inoculation. The test compounds were dissolved in DMSO and by two-fold dilution steps concentrations in the range from 200 µM to 0.39 µM in BIHS medium were obtained. The solutions (100µL) were added to 100 µL of a diluted C. difficile culture (total volume: 200 µL in BIHS, 5 × 10^5 C. difficile, 100–0.195 µM test compound per well). The OD600-values over a period of 48 h were measured with a LogPhase 600 4-plate reader (BioTek) and compared with blank BHIS.

For series [15], the system named is C. difficile strain VPI10463 (ATCC 43255), metronidazole-sensitive. Described as above. The class given is cell-based, Clostridioides difficile. As for the experimental part: as §3
For series [16], the system named is C. difficile strain 1296^ T (DSM 1296), metronidazole-sensitive. The description is as above. The series is classed as cell-based, Clostridioides difficile. As for the experimental part:
as §3

T1 sequence (P0A9P4 whole entry): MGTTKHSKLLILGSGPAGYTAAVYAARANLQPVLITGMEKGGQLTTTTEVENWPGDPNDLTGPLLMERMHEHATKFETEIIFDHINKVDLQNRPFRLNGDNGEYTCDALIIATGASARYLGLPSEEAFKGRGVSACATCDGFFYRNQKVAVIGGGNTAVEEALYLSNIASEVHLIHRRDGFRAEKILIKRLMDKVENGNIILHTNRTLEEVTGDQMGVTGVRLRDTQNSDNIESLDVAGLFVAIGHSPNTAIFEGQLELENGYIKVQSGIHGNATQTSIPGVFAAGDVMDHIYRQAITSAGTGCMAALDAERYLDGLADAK

For `CCn1[c]([Au-][Cl])[n+](CC)c2cc(C(=O)O)ccc21` [Compound 1b, Chlorido-(1,3-diethyl-5-carboxybenzimidazol-2-ylidene)gold(I)], the IC50 (commonly the concentration at which inhibition is half-maximal) in series [1] was over 75 µM; in series [2] it was 66.3 ± 8.8 µM; in series [3], 74.6 ± 1.3 µM; in [4], over 100 µM; in series [6] it was over 60 µM; in series [13], 0.297 ± 0.031 µM. Further, the “MIC values against all bacteria strains” value in [5] is over 100 µM. For the same compound, the “MIC, E. faecium” value in [7] was 142.0 ± 0.0 µM. Further, the “MIC, MRSA” value in [8] was found to be 142.0 ± 0.0 µM. In addition, the “MIC, E. coli” value in series [9] came to 142.0 ± 0.0 µM. The MIC in [10], in [11] and in series [12] (20 h at 37 °C) was over 142.0 µM each time.
Regarding `Cc1ncc([N+](=O)[O-])n1CCO` [Metronidazole, reference compound], the half-maximal inhibitory concentration (IC50) is over 100 µM in series [1] (Homo sapiens, A549); over 100 µM in [2] (Homo sapiens, HT-29); over 100 µM in [3] (Homo sapiens, MDA-MB-231); over 100 µM in series [4] (Chlorocebus sabaeus, Vero C1008); over 100 µM in [6] (Homo sapiens). Moreover, the “MIC values against all bacteria strains” value in series [5] is “not active”. The minimum inhibitory concentration (MIC) (in general, the least concentration at which growth counts as inhibited) in series [7] (Enterococcus faecium) was over 350 µM; in series [8] (Staphylococcus aureus), over 350 µM; in series [9] (Escherichia coli) it was over 350 µM; in [10] (Klebsiella pneumoniae) it was over 350 µM; in series [11] (Acinetobacter baumannii), over 350 µM; in [12] (Pseudomonas aeruginosa, DSM24068, 20 h at 37 °C), over 350 µM. Also, in series [14] (metronidazole-resistant strain IB136, up to 100 µM, 48 h), the “concentration leading to a complete block of bacterial growth without recovery” value is recorded as “no dosage of the drug could terminate the proliferation”. Moreover, the “antibacterial effect at 6.25 µM” value in series [14] (resistant strain IB136, 6.25 µM) is “completely inactive”; in [15] (strain VPI10463, 6.25 µM, recovery of growth after extended exposure), “effective inhibitors”; in series [16] (strain 1296T, 6.25 µM, recovery of growth after extended exposure), “effective inhibitors”.
On to `CC(=O)OC[C@H]1O[C@@H]([S-])[C@H](OC(C)=O)[C@@H](OC(C)=O)[C@@H]1OC(C)=O.CCP(CC)CC.[Au+]` [Auranofin, reference compound], for which the half-inhibitory concentration (IC50) in series [1] was determined as 4.2 ± 0.6 µM; in [2], 10.5 ± 4.8 µM; in [3], 1.2 ± 0.3 µM; in series [4] it was 2.6 ± 0.1 µM; in series [13] it was 0.21 ± 0.03 µM. The “activity against Gram-negative strains (in words)” value in series [5] was “lower active or inactive”. Besides, the “activity against Gram-positive strains (in words)” value in series [5] is “strong activity”. Besides, the “MIC, E. faecium” value in series [7] was found to be 0.6 ± 0.2 µM. Also, the MIC was under 0.2 µM in series [8], over 30 µM in series [9], over 30 µM in series [10] and over 30 µM in [12] (20 h at 37 °C). Besides, the “MIC, A. baumannii” value in series [11] is 7.8 ± 7.1 µM.
As for `CCOC(=O)Cn1[c]([Au-][Cl])[n+](C)c2ccccc21` [Compound 2a, Chlorido-(1-(2-ethoxy-2-oxoethyl)-3-methylbenzimidazol-2-ylidene)gold(I)], the IC50 in series [1] was 26.1 ± 3.7 µM; in [2], 19.9 ± 5.1 µM; in series [3], 9.6 ± 2.7 µM; in series [4] it was 25.8 ± 4.6 µM; in series [6] it was 9 to 26 µM. In addition, in series [6] (in all cases (all cell lines)), the “cytotoxicity of 2a relative to 2c (times stronger)” value is listed as 3–4.
Take `Cn1[c](=[Au][Cl])n(CC(=O)O)c2ccccc21` [Compound 2b]: the IC50 in series [1] is over 100 µM; in [2], over 80 µM; in [3], 65.7 ± 8.2 µM; in [4], over 100 µM; in series [6], over 60 µM; in series [13], 0.364 ± 0.103 µM. In addition, in [5], the “MIC values against all bacteria strains” value was over 100 µM. For the same compound, the MIC in series [7], in series [10], in [11] and in series [12] (20 h at 37 °C) was over 151.4 µM each time. Also, in series [8], the “MIC, MRSA” value was found to be 151.4 ± 0.0 µM. Also, the “MIC, E. coli” value in series [9] worked out at 151.4 ± 0.0 µM. Moreover, the “antibacterial effect, dosages from 0.2 to 100 µM” value in series [14] (strain IB136 (Figure S3)), in [15] (strain VPI10463 (Figure S2)) and in series [16] (strain 1296T (Figure S1)) was “inactive” each time.
